# What was measured:
# [1] = tested on: LNCaP xenografts; experiment: LNCaP xenograft model; assay type: in vivo, NOD/SCID mice; conditions: mouse, in vivo
# Protocol: Treatment started 19 days after implantation when the tumors measure ˜200 mm^3. Two independent experiment with 5 mice per group were carried out. J54 and Bicalutamide was dissolved in DMSO and diluted in corn oil 1:10 and administered IP bi-weekly. Sectioning and processing of the tissues were carried out in the FWCC Histology Service, using automated processes and equipment to provide uniform and standardized results. Indirect labeling was with ABC Elite: RTU Vectastain Elite Reagent, Vector #PK-7100; DAB: ImmPact DAB, Vector #SK-4105. Light counterstaining was done with hematoxylin. […] Note the weak pNek1 stain in the tumor from mice treated with J54, in contrast to the increase seen with BIC.
# LNCaP Xenograft Model and Immunohistochemistry (IHC): All animals used in this study were approved by LSUHSC IACUC and following ARRIVE guidelines. Male NOD/SCID mice (5 per group) were purchased from Jackson labs. LNCaP cells were injected as described earlier. Mice were treated IP bi-weekly with J54 (5 mg/kg body weight—dose estimation derived from pharmacokinetics study) and/or Bicalutamide (100 mg/kg).
# The inventors sought to establish if the addition of J54 could suppress the resurgence of tumor growth of LNCaP xenografts and their latter conversion to CRPC. Following formation of sizeable tumors (˜200 mm^3), castration or anti-androgens arrest the progression of LNCaP xenografts for some time (2-3 weeks), while subsequently the tumors start growing again at an accelerated rate which is refractory to ADT (AI). Therefore, the inventors injected LNCaP cells in matrigel in both flanks of NOD-SCID mice, and then randomly assigned them to four treatment groups (n=5 per group×2 independent experiments), as shown in FIGS. 13A-13C. […] The inventors should also point out that the inventors treated the mice with J54 only bi-weekly due to the favorable pharmacokinetics, where maximal plasma concentration of 100 ng/ml ([…]) were reached 2 h after IP injection, and was still present at −6 ng/ml (6 μM) after 24 h (FIG. 18A-18C).
# [2] = target: T1, recombinant TLK1B (Homo sapiens, UniProt Q9UKI8); experiment: TLK1B kinase assay with Nek1 peptide (ADP Hunter), inhibitor screening; assay type: biochemical; parameters: The full-length, 65 KDa recombinant human TLK1B (hTLK1B) for the in-vitro experiments was expressed and purified from bacteria; made in house; host or cells: bacteria; conditions: tested at 20 μM
# T1 sequence (Q9UKI8 1-549 isoform Q9UKI8-3): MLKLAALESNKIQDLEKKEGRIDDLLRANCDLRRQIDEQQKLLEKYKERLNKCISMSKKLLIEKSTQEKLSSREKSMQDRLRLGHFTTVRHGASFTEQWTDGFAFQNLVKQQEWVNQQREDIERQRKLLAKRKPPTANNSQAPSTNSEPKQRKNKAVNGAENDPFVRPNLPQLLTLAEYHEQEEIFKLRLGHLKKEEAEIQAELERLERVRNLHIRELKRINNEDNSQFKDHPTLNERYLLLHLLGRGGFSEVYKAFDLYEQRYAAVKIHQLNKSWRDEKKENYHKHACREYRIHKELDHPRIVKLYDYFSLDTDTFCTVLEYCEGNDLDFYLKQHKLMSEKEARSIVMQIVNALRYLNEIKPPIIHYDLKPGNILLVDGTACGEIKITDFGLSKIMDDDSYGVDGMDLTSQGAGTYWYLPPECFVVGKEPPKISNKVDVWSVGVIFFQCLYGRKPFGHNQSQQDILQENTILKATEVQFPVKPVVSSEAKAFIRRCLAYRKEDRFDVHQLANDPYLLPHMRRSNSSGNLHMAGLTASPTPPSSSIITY
# Protocol: FIG. 8A-FIG. 25 show further experiments into the present invention, with FIGS. 8A-8G show kinase assays, inhibitor screening, IC50 evaluation and competitive assays. Recombinant TLK1B purified to homogeneity (FIG. 8A) is active in kinase assays (FIG. 8B) and phosphorylates a specific Nek1 peptide (FIG. 8C). […] All experiments were conducted in triplicates. The DiscoverRx ADP Hunter™ (Eurofins DiscoverRx, Fremont, CA, US) Kit was used to measure the generation of ADP resulting from kinase phosphorylation of substrate.
# Chemical synthesis of J54 and several different Phenothiazines and Protein expression and purification: Details were explained in section B of supplementary of material and methods. The full-length, 65 KDa recombinant human TLK1B (hTLK1B) for the in-vitro experiments was expressed and purified from bacteria as described earlier.
# Results: A new PTH potent inhibitor of TLK1B. A few PTH antipsychotics were identified in a screen the inventors conducted from a compounds library as good inhibitors of TLK1. To find additional inhibitors, recombinant TLK1B was purified (FIG. 8A). The enzymatic activity was determined using the ADP-Hunter reagents and a Nek1 peptide containing the T141 target site. […] Several structurally similar compounds were synthesized as described in the Appendix (and see NMR and MS data FIGS. 10 and 11) and tested at 20 μM (FIGS. 8E and 8F). […] The inventors continued the inventors' characterization of J54.
# [3] = target: T1, recombinant TLK1B; experiment: High throughput screen with Rad9 peptide substrate / autokinase assay; assay type: biochemical; conditions: library screen
# Protocol: FIGS. 5A and 5B show Inhibition of TLK1/1B autophosphorylation by PTH. […] 293T cells were incubated for 1 hour with PPH. TLK1 was immunoprecipitated, followed by auto-phosphorylation with γ-ATP^32. The blots were then probed with TLK1 antiserum.
# Identification of TLK inhibitors. The inventors have screened the Prestwick Library, partially the ChemDiv, and two proprietary libraries (10,000 compounds) for inhibitors of TLK with a high throughput screen with recombinant TLK1B and a Rad9 peptide substrate. […] The inhibition of autokinase activity was confirmed by TCA-precipitable counts with γ32P-ATP (FIG. 5A).
# [4] = tested on: panel of cell lines, including RWPE1 and hTERT-HME1; experiment: Toxicity on a panel of cell lines without doxorubicin; assay type: cell-based; conditions: 15 μM, absence of doxorubicin
# [5] = tested on: 456 human kinases; experiment: Kinome panel (KinomeScan-DiscoverX); assay type: binding
# [6] = tested on: LNCaP cells; experiment: Emergence of androgen insensitive (AI) colonies of LNCaP with bicalutamide; assay type: cell-based
inhibition of TLK [3],SMILES,toxicity [4],other results
strong inhibitors,"OCCN1CCN(CCCN2c3ccccc3Sc3ccc(Cl)cc32)CC1 [PPH, Perphenazine]",low toxicity,
strong inhibitors,"CN1CCN(CCCN2c3ccccc3Sc3ccc(C(F)(F)F)cc32)CC1 [TFP, Trifloroperazine]",low toxicity,

# Continued, compound first:
SMILES,inhibition of TLK [3],toxicity [4],other results
"CC(O)(CS(=O)(=O)c1ccc(F)cc1)C(=O)Nc1ccc(C#N)c(C(F)(F)F)c1 (stereo not shown) [BIC, Bicalutamide, reference compound]",,,lag before exponential growth following beginning of administration [1]: 12 days
"CN1c2ccccc2Sc2ccccc21 [J56, 10-methyl-10H-phenothiazine]",,,inhibition of TLK1B compared with standard [2]: more inhibitory than Staurosporin
"CN(C)CCCN1c2ccccc2Sc2ccccc21 [PMZ, Promazine]",strong inhibitors,,
"CSc1ccc2c(c1)N(CCC1CCCCN1C)c1ccccc1S2 (stereo not shown) [THD, Thioridazine]",strong inhibitors,low toxicity,"specificity on kinome panel [5]: no other kinase (except TLK2) in the panel was inhibited; growth inhibition in androgen containing medium (FCS) ([6]; 3-9 μM THD): 50%; emergence of AI colonies ([6]; 3-9 μM THD with bicalutamide, three weeks): few or no AI colonies emerged; conversion of LNCaP cells to androgen independent growth ([6]; three weeks of culture with bicalutamide): Complete inhibition"

# Reference: patent US11826369B2, “Targeting the TLK1/NEK1 axis in prostate cancer” (Board of Supervisors of Louisiana State University and …, priority 2019, dated 2023)
